Test results published in patent US5084462A, “4-quinoline carboxylic acid derivatives useful as immunosuppressive agents” (The Du Pont Merck Pharmaceutical Company, priority 1990, dated 1992).
Read-outs that look alike come from different tables or passages of the source.

Tested on: contact sensitivity response to 2,4-dinitrofluorobenzene (DNFB)
Assay: Contact sensitivity response to 2,4-dinitrofluorobenzene (DNFB) in mice
Assay type: in vivo, Balb/c female mice
Conditions: for inhibition in vivo at 1 mg/kg: 1.0 mg/kg oral
Procedure: This is an antigen-specific T-cell mediated inflammatory response that represents delayed-type hypersensitivity reactions seen in both humans and other mammals.
Balb/c female mice (.perspectiveto.20g, Charles River) were sensitized on the shaved abdomen with 25 μl of 0.5% 2,4-dinitrofluorobenzene ([…], Eastman Kodak Co.) in a vehicle of 4:1 acetone:olive oil on days 0 and 1. Mice were ear challenged with 20 μl of 0.2% DNFB in a vehicle of 4:1 acetone:olive oil on day 5. A constant area of the ears was measured immediately before challenge and 24 hours later with an engineer's micrometer. Ear swelling was expressed as the difference in ear thickness before and after challenge in units of 10^-4 inches±SEM. Percent suppression was calculated as: [formula] […] Negative controls were not sensitized on days 0 and 1 but were ear challenged on day 5. Ten mice were used per group.

[1] = Mus musculus, po, 24 h, Table 3, ear swelling, 20.0 mg/kg oral, read-out: % Suppression

Q: What does the source list for `Cc1c(-c2ccc(-c3ccc(Br)cc3)cc2)nc2ccc(F)cc2c1C(=O)O` [Example 4]?
A: inhibition in vivo at 20 mg/kg [1]: 87%; Ear Swelling (units ± SEM), increase in ear thickness from day 5 to day 6 (Table 3, 20.0 mg/kg oral): 11.80 ± 1.03 10^-4 inches

Q: `Cc1ccc2nc(-c3ccc(-c4ccccc4)cc3)c(C)c(C(=O)O)c2c1` [Example 5] was tested. Which inhibition in vivo at 20 mg/kg [1] did it give?
A: 53.4%

Q: And the “Ear Swelling (units ± SEM), increase in ear thickness from day 5 to day 6” value (“Ear Swelling (units ± SEM), increase” for short) (Table 3, 20.0 mg/kg oral)?
A: 35.47 ± 2.31 10^-4 inches

Q: How did the inhibition in vivo at 0.2 mg/kg (Mus musculus, po, 24 h, Table 2, ear swelling, 0.2 mg/kg oral, read-out: % Suppression) turn out when `C[C@@H]1C[C@H]2[C@@H]3CCC4=CC(=O)C=C[C@]4(C)[C@@]3(F)[C@@H](O)C[C@]2(C)[C@@]1(O)C(=O)CO` [Dexamethasone, reference compound] was run?
A: 28.8%

Q: What about the inhibition in vivo at 1 mg/kg (Mus musculus, po, 24 h, Table 2, ear swelling, read-out: % Suppression) of the same compound?
A: 44.3%

Q: What about the inhibition in vivo at 5 mg/kg (Mus musculus, po, 24 h, Table 2, ear swelling, 5.0 mg/kg oral, read-out: % Suppression) of the same compound?
A: 68.6%

Q: What about the inhibition in vivo at 10 mg/kg (Mus musculus, po, 24 h, Table 2, ear swelling, 10.0 mg/kg oral, read-out: % Suppression) of the same compound?
A: 79.9%

Q: What about the inhibition in vivo at 1 mg/kg (Mus musculus, po, 24 h, Table 3, ear swelling, read-out: % Suppression) of the same compound?
A: 43.8%

Q: And the ED50 (Mus musculus, Table 2, suppression of ear swelling, oral, days -2 through 6, read-out: ED50)?
A: 1.5 mg/kg

Q: What about the “Ear Swelling (units ± SEM), increase” value (Table 2, 0.2 mg/kg oral) of the same compound?
A: 52.95 ± 3.39 10^-4 inches

Q: And the “Ear Swelling (units ± SEM), increase” value (Table 2, 1.0 mg/kg oral)?
A: 41.60 ± 2.46 10^-4 inches

Q: And the “Ear Swelling (units ± SEM), increase” value (Table 2, 5.0 mg/kg oral)?
A: 23.79 ± 2.71 10^-4 inches

Q: What about the “Ear Swelling (units ± SEM), increase” value (Table 2, 10.0 mg/kg oral) of the same compound?
A: 15.50 ± 2.10 10^-4 inches

Q: What about the “Ear Swelling (units ± SEM), increase” value (Table 3, 1.0 mg/kg oral) of the same compound?
A: 42.20 ± 2.61 10^-4 inches

Q: How did the inhibition in vivo at 20 mg/kg [1] turn out when `Cc1c(-c2ccc(Oc3ccccc3)cc2)nc2ccc(F)cc2c1C(=O)O` [Example 3] was run?
A: 83.5%

Q: And the “Ear Swelling (units ± SEM), increase” value (Table 3, 20.0 mg/kg oral)?
A: 14.25 ± 1.49 10^-4 inches

Q: For `COc1c(-c2ccc(-c3ccccc3)cc2)nc2ccc(F)cc2c1C(=O)O` [Example 11], which inhibition in vivo at 20 mg/kg [1] is on record?
A: 74.1%

Q: And the “Ear Swelling (units ± SEM), increase” value (Table 3, 20.0 mg/kg oral)?
A: 20.85 ± 2.53 10^-4 inches

Q: Which results are given for `Cc1c(-c2ccc(Sc3ccccc3)cc2)nc2ccc(Cl)cc2c1C(=O)O` [Example 8]?
A: Ear Swelling (units ± SEM), increase in ear thickness from day 5 to day 6 (Table 3, 20.0 mg/kg oral): 63.25 ± 3.58 10^-4 inches; % Suppression (Table 3, ear swelling, 20.0 mg/kg oral, 20 mg/kg): 13.98%

Q: For `O=C(O)c1cc(-c2ccc(-c3ccccc3)cc2)nc2ccc(F)cc12` [Example 9], which inhibition in vivo at 20 mg/kg [1] is on record?
A: 43.3%

Q: And the “Ear Swelling (units ± SEM), increase” value (Table 3, 20.0 mg/kg oral)?
A: 42.60 ± 2.68 10^-4 inches

Q: `Cc1c(-c2ccc(-c3ccc(O)cc3)cc2)nc2ccc(Cl)cc2c1C(=O)O` [Example 12] was tested. Which inhibition in vivo at 20 mg/kg [1] did it give?
A: 26.3%

Q: And the “Ear Swelling (units ± SEM), increase” value (Table 3, 20.0 mg/kg oral)?
A: 54.58 ± 3.21 10^-4 inches

Q: For `Cc1c(-c2ccc(SC(C)C)cc2)nc2ccc(F)cc2c1C(=O)O` [Example 6], which inhibition in vivo at 20 mg/kg [1] is on record?
A: 21.1%

Q: And the “Ear Swelling (units ± SEM), increase” value (Table 3, 20.0 mg/kg oral)?
A: 58.20 ± 4.63 10^-4 inches

Q: For `Cc1c(-c2ccc([S+]([O-])c3ccccc3)cc2)nc2ccc(F)cc2c1C(=O)O` (stereo not shown) [Example 10], which inhibition in vivo at 20 mg/kg [1] is on record?
A: 22.4%

Q: And the “Ear Swelling (units ± SEM), increase” value (Table 3, 20.0 mg/kg oral)?
A: 57.28 ± 2.36 10^-4 inches

Q: For `Cc1c(-c2ccc(Sc3ccccc3)cc2)nc2ccc(Cl)cc2c1C(=O)O` [Example 7], which inhibition in vivo at 20 mg/kg [1] is on record?
A: 14.4%

Q: And the “Ear Swelling (units ± SEM), increase” value (Table 3, 20.0 mg/kg oral)?
A: 62.95 ± 3.40 10^-4 inches
